Data: patent publication US20210106679A1, “Silaffin Silica Particle Adjuvant” (UNIVERSITÄT WIEN, priority 2017, published 2021)
“Also recorded” adds a separate entry of the source. *1 amine or outer side, *2 acyl side, *3 side chain or, on linkers, in order; H or OH if unused. Where no end group is shown, it is not given here. [ ]: non-standard residue; d: D form. εLys = N[C@@H](CCCCN[*:1])C(=O)[*:2]

Tests used:
[1] = TEM imaging of peptides and peptide-silica mixtures; format: physicochemical; conditions: phosphate buffer, absence of silicic acid
Protocol: Peptide and peptide-silica mixtures suspended in 50 mM phosphate buffer were applied onto carbon coated copper grid and subsequently viewed with Philips CM200 electron microscope operated at 200 kV.

[2] = Circular dichroism of peptide solutions; format: physicochemical; conditions: for CD spectrum profile: 0.8 mM in 50 mM phosphate buffer pH 7, after 24 h incubation
Protocol: CD spectra were recorded on peptide solutions at 0.8 mM (by weight) in 50 mM phosphate buffer at pH 7. Solutions had been incubated at room temperature for a minimum of 24 h. Scans were performed in 1 nm increments with 3 s scans at 20° C. and averaged over 5 scans.
The CD spectrum of peptide 1 in the A range of 200-250 nm was fitted by use of the novel Beta Structure Selection algorithm with normalized root mean square deviation of 0.018 (A. Micsonai, F. Wien, L. Kernya, Y.-H. Lee, Y. Goto, M. Réfrégiers and J. Kardos, Proc. Natl. Acad. Sci., 2015, 112, E3095-E3103). The algorithm predicts that the secondary or tertiary structure of the peptide consists of approximately 56% random coils, 27% beta-sheets and 17% beta-turns.

[3] = from a solution of silicic acid; cited from earlier work
[4] = Silica precipitation (mineralisation) by peptides; conditions: silicic acid 25 mM, peptide 0.5 mg/mL, 50 mM phosphate buffer pH 7, RT
Protocol: The individual members of the peptide library were subjected to silica mineralisation conditions analogous to those used for the R5 peptide (C. C. Lechner and C. F. W. Becker, Chem. Sci., 2012, 3, 3500). Phosphate buffered solution at pH 7 was used as a background for the reaction, and peptides were individually incubated in this buffer for 24 h prior to silica precipitation. White precipitate was observable in all samples within the first five minutes following addition of the silicic acid.
Peptides were dissolved to a final concentration of 0.5 mg/mL in 50 mM potassium phosphate buffer at pH 7.0 and left standing at room temperature overnight. Silicic acid was generated by hydrolysis of 250 mM tetramethoxysilane in 1 mM aqueous HCl for 4 min. Silica precipitation reactions were initiated by addition of silicic acid to peptide solutions to a final concentration of 25 mM. Reactions were incubated at RT for 30 min. Silica precipitates were collected by centrifugation (5 min, 16.873×g) and washed twice with water. […] All precipitations were carried out in triplicates.

[5] = CD 200-250 nm fitted with Beta Structure Selection algorithm

| Substance | CD spectrum profile [2] | also measured |
| --- | --- | --- |
| rriil(εK)RRIL [Peptide 8] | significantly lower magnitudes than those for peptides 1-4; also recorded: the minimum at 200 nm disappeared and the curve gained a positive character | diameter of peptide rods or narrow sheets (TEM) [1]: 80-200 nm |
| SSKKSGSYSGSKGSKRRIL [Peptide R5] |  | silica precipitation and morphology [3]: highly efficient in precipitating monodisperse silica particles |
| KRRIL (truncated silaffin peptide I) |  | silica precipitation and morphology [3]: precipitate silica with a random morphology |
| rril(εK)RRIL [Peptide 6] | significantly lower magnitudes than those for peptides 1-4 |  |
| RRILKRRIL [Peptide 1] | random coil conformation | secondary structure: beta-sheets [2, 5]: ~27%; secondary structure: beta-turns [2, 5]: ~17%; secondary structure: random coils [2, 5]: approximately 56% |
| rriil(εK)RRLL [Peptide 66] |  | capacity to precipitate silica [4]: still able to precipitate silica |
| RRIIL(εK)RRIL (RRIIL[εLys]RRIL-OH; also: Lys6 bound via its epsilon amine to the preceding Leu (branched)) [Peptide 9] | profile was similar to that of peptides 1 |  |
| rrilkrril [Peptide 2] | mirror image of the spectrum of peptide 1 |  |
| rriIKRRIL [Peptide 5] | significantly lower magnitudes than those for peptides 1-4 |  |
| rril(εK)RRIIL [Peptide 7] | significantly lower magnitudes than those for peptides 1-4 |  |
